Results on seven molecules are retold here after US12121581B2, “Method of photodynamic therapy” (OSLO UNIVERSITETSSYKEHUS HF, priority 2018, dated 2024).

The test system of one series is MCF7 cells. Kind of series: LUMIBLAST cell viability, MTT assay. The format is cell-based. On the procedure:
(§1) Efficiency of the luminol derivatives was investigated. The initial derivative tested was HD92 (also referred to herein as “AP47”). U87 cells were inoculated in 96 well plates. The cells were then divided into the following groups (at least 6 parallels per group): CTRL (media only), ALA CTRL (2 mM), HD92 CTRL (500 μM) and the LUMIBLAST group (2 mM 5-ALA and 500 μM HD92). Correspondingly, MCF7 cells were inoculated in 96 well plates and left to grow overnight. The cells were then divided into the following groups (at least 6 parallels per group): CTRL (media only), Hypocrellin A CTRL (HYPA 7 μM), HD92 CTRL (500 μM) and the LUMIBLAST group (7 μM HYPA and 500 μM HD92). These four groups were incubated in media with and without 10 μM FeSO4 in the case of experiments with HYPA. Following incubation of the cells with their respective drug strategies overnight (˜20 hours), the cell groups were tested for their viability using a standard MTT assay. In brief, all cell groups were incubated with 0.5 mg/mL MTT for 3 hours. The MTT media were subsequently replaced with DMSO (100 μL) to solubilise the formazan. The wells were read for absorbance at 562 nm using a Tecan Spark OM plate reader. The cytotoxicity was determined as the percentage of control (media only) absorbance following subtraction of blank values from wells without cells.
MCF7 and U87 cells were inoculated in 96 well plates. The cells were then divided into the following groups (at least 6 parallels per group): CTRL (media only), HYPA CTRL (3 μM), DZ168 CTRL (5, 10, 20 and 30 μM), and the LUMIBLAST combinations (3 μM HYPA+DZ168 5-30 μM). These cell group incubations were also repeated in media containing 100 μM CuSO4. Following incubation of the cells with their respective drug strategies overnight (˜20 hours), the cell groups were tested for their viability using the MTT assay.
In general terms: Tetrazolium dyes change colour on reduction, which living cells bring about.

Another series relates to U87 cells. The series can be described thus: LUMIBLAST cell viability, MTT assay. It is filed as cell-based. On the procedure: Efficiency of the luminol derivatives was investigated. The initial derivative tested was HD92 (also referred to herein as “AP47”). U87 cells were inoculated in 96 well plates. The cells were then divided into the following groups (at least 6 parallels per group): CTRL (media only), ALA CTRL (2 mM), HD92 CTRL (500 μM) and the LUMIBLAST group (2 mM 5-ALA and 500 μM HD92). Correspondingly, MCF7 cells were inoculated in 96 well plates and left to grow overnight. The cells were then divided into the following groups (at least 6 parallels per group): CTRL (media only), Hypocrellin A CTRL (HYPA 7 μM), HD92 CTRL (500 μM) and the LUMIBLAST group (7 μM HYPA and 500 μM HD92). These four groups were incubated in media with and without 10 μM FeSO4 in the case of experiments with HYPA. […] In brief, all cell groups were incubated with 0.5 mg/mL MTT for 3 hours. The MTT media were subsequently replaced with DMSO (100 μL) to solubilise the formazan. The wells were read for absorbance at 562 nm using a Tecan Spark OM plate reader. The cytotoxicity was determined as the percentage of control (media only) absorbance following subtraction of blank values from wells without cells.
MCF7 and U87 cells were inoculated in 96 well plates. The cells were then divided into the following groups (at least 6 parallels per group): CTRL (media only), HYPA CTRL (3 μM), DZ168 CTRL (5, 10, 20 and 30 μM), and the LUMIBLAST combinations (3 μM HYPA+DZ168 5-30 μM). These cell group incubations were also repeated in media containing 100 μM CuSO4. […]
MCF7 and U87 cells were inoculated in 96 well plates. The cells were then divided into the following groups (at least 6 parallels per group):CTRL (media only), HYPA CTRL (5 μM), DZ167 CTRL (25-200 μM), and the LUMIBLAST combinations (5 μM HYPA+DZ167 25-200 μM). These incubations were performed in media containing 50 μM CuSO4. […]
The subcellular localisation of cercosporin together with that of synthesised derivatives DZ203 (short alkyl linker) and DZ196 (oligoPEG linker) was investigated. U87 cells were inoculated in 96 well plates. The cells were then divided into the following groups (at least 6 parallels per group). CTRL (media only), Cercosporin CTRL (3 μM), DZ203 CTRL (200 μM), DZ196 CTRL (500 μM) and the LUMIBLAST combinations (3 μM cercosporin+DZ203 200 μM or 3 μM cercosporin DZ196 500 μM). […]

For the next series, the system named is cells. The conditions noted are these: luminol together with transferrin-haematoporphyrin conjugates; cited from earlier work.
Series [1] concerns MDA-MB-231 breast carcinoma cells. Kind of series: LUMIBLAST cell viability, MTT assay. The format is cell-based. Conditions: 1.2 mM 5-ALA + DZ203 400 μM, 100 μM CuSO4, ~20 hours. On the procedure:
as §1
MDA-MB-231 cells were inoculated in 96 well plates. […]

Structures are written as SMILES.

In the case of `O=c1[nH][nH]c(=O)c2c(NCCCCCCCCCC[P+](c3ccccc3)(c3ccccc3)c3ccccc3)cccc12.[I-]` [DZ168, (10-((1,4-dioxo-1,2,3,4-tetrahydrophthalazin-5-yl)amino)decyl)triphenylphosphonium iodide], the “toxicity (MTT viability)” value in the series with MCF7 cells (3 μM HYPA + DZ168 5-30 μM, 100 μM CuSO4, ~20 hours) is recorded as “enhanced toxicity”; in the series on U87 cells (U87, 3 μM HYPA + DZ168 5-30 μM, 100 μM CuSO4, ~20 hours), “not affected”.

Take `Nc1cccc2c(=O)[nH][nH]c(=O)c12` [luminol]: in the series on cells, the cytotoxicity was 95%.

For `O=c1[nH][nH]c(=O)c2c(NCCC[P+](c3ccccc3)(c3ccccc3)c3ccccc3)cccc12.[I-]` [DZ203, (3-((1,4-dioxo-1,2,3,4-tetrahydrophthalazin-5-yl)amino)propyl)triphenylphosphonium iodide], the “LUMIBLAST effect (MTT viability)” value with U87 cells (U87, 3 μM cercosporin + DZ203 200 μM, 24 hours, presence of Cu (150 μM)) is reported as “very profound effect”; in series [1], “substantial synergy”.

As to `NCC(=O)CCC(=O)O` [Compound 5-ALA, 5-aminolevulinic acid, reference compound], the “efficiency of photosensitizer in producing LUMIBLAST effects” value with U87 cells (2 mM 5-ALA with 500 μM HD92 in U87, compared with HYPA in MCF7 with FeSO4) is given as “less efficient in producing LUMIBLAST effects than HYPA”.

As for `O=c1[nH][nH]c(=O)c2c(NCCOCCOCC[P+](c3ccccc3)(c3ccccc3)c3ccccc3)cccc12.[I-]` [DZ196, (2-(2-(2-((1,4-dioxo-1,2,3,4-tetrahydrophthalazin-5-yl)amino)ethoxy)ethoxy)ethyl)triphenylphosphonium iodide], in the series on U87 cells (U87, 3 μM cercosporin + DZ196 500 μM, without Cu), the “LUMIBLAST effect (MTT viability)” value is listed as “smaller effect”.

Turning to `O=C(CCCCC[P+](c1ccccc1)(c1ccccc1)c1ccccc1)Nc1cccc2c(=O)[nH][nH]c(=O)c12.[Br-]` [AP47, (6-((1,4-dioxo-1,2,3,4-tetrahydrophthalazin-5-yl)amino)-6-oxohexyl)triphenylphosphonium bromide], the “combinatory cytotoxic effect (MTT viability)” value was “combinatory cytotoxic effect is profoundly significant” with MCF7 cells (7 μM HYPA and 500 μM HD92, 10 μM FeSO4, ~20 hours, relative to HD92 control); “combinatory cytotoxic effect is profoundly significant” in the series on U87 cells (U87, 2 mM 5-ALA and 500 μM HD92, ~20 hours, relative to HD92 control). In addition, the “toxicity of the derivative alone (MTT viability)” value in the series with MCF7 cells (HD92 CTRL 500 μM, ~20 hours) was “sub-toxic but very near the margins of chemical toxicity”; with U87 cells (U87, HD92 CTRL 500 μM, ~20 hours), “sub-toxic but very near the margins of chemical toxicity”.

Regarding `O=c1[nH][nH]c(=O)c2c(NCCCCCC[P+](c3ccccc3)(c3ccccc3)c3ccccc3)cccc12.[I-]` [DZ167, (6-((1,4-dioxo-1,2,3,4-tetrahydrophthalazin-5-yl)amino)hexyl)triphenylphosphonium iodide], the “LUMIBLAST effect (MTT viability)” value with U87 cells (U87, 200 μM DZ167, 5 μM HYPA and 50 μM CuSO4, ~20 hours) is recorded as “synergistic effect”.
